Patent US8536207B2, “Method for treating a keratoconjunctival disorder” (Santen Pharmaceutical Co., Ltd., priority 2005, dated 2013)

How the values were obtained:
[1] = test system: corneal damage in rats in which the exorbital lacrimal gland was removed; test: Test for therapeutic effect on corneal damage using rats in which the exorbital lacrimal gland was removed; format: in vivo, male SD rats; settings: for Improvement ratio (%) of corneal damage: fluorescein staining score vs saline control
Procedure: 1. Test for Therapeutic Effect on Corneal Damage Using Rats in which the Exorbital Lacrimal Gland was Removed
Using male SD rats, corneal disorder models were produced in accordance with the method of Fujihara et al. (Invest. Ophthalmol. Vis. Sci. 42 (1): 96-100 (2001)). After the production of the corneal disorder models, the improvement ratio of corneal damage was evaluated by a method (Journal of the eye 21 (1): 87-90 (2004)) modified from the method of Miyata et al. (Japanese Review of Clinical Ophthalmology 48 (2): 183-188 (1994)).
Male SD rats were systemically anesthetized by an administration of Nembutal. Subsequently, the exorbital lacrimal gland of each rat was removed and a corneal damage was induced over a period of 2 months.
A physiological saline solution containing ebselen (25 μM) was instilled into both eyes 6 times a day for 14 days (one group consisting of 8 animals).
A physiological saline solution containing edaravone (200 μM) was instilled into both eyes 6 times a day for 14 days (one group consisting of 8 animals).
A physiological saline solution containing α-lipoic acid (200 μM) was instilled into both eyes 6 times a day for 14 days (one group consisting of 8 animals).
In a control group, physiological saline was instilled into both eyes 6 times a day for 14 days (one group consisting of 8 animals)
Fourteen days after the start of instillation, the damaged parts of the cornea were stained with fluorescein. For each of the upper, middle and lower parts of the cornea, the degree of fluorescein staining was evaluated by scoring according to the criteria shown below and the improvement ratio of corneal damage was calculated from the mean value of the total scores for each of the above-mentioned parts.
1: Scattered staining (punctate staining being separated)
2: Moderate staining (a part of punctate staining being adjacent)
3: Heavy staining (punctate staining being barely separated)
Incidentally, intermediate values (at intervals of 0.5) were set between the respective scores.
By taking the mean value of the scores for the control group (physiological saline) as a standard (improvement ratio: 0%) and according to the calculation equation shown below, the improvement ratios for the ebselen (25 μM) administration group and the edaravone (200 μM) administration group and α-lipoic acid (200 μM) administration group were calculated, respectively, which are shown in Table 1. Incidentally, the mean value of the scores is a mean of those of 8 cases in each group. Improvement ratio (%)={(control)−(administered compound)}/damage degree×100 Damage degree=(control)−(normal eye)

[2] = test system: corneal damage in senescence-accelerated mouse model P10 (SAMP10); test: Pharmacological test using SAMP10 (corneal damage, fluorescein staining); format: in vivo; settings: for Score of fluorescein staining: mean±standard error, maximum 9 points
Procedure: 2. Pharmacological Test Using SAMP10
Using senescence-accelerated mouse model P10 (hereinafter referred to as SAMP10), an effect of ebselen on a corneal damage was evaluated in accordance with the method of Hirai, Shibagaki et al. (JP-A-2006-104913). Incidentally, as a control animal, SAMR1 with normal senescence was used.
SAMP10 develops a corneal disorder with aging. Accordingly, a corneal damage of female SAMP10 at 16 weeks of age (before a change caused by aging is observed) was evaluated, and then, administration of an ebselen solution or its vehicle was started. At 8 weeks after the start of administration (at 24 weeks of age), the same evaluation was carried out again. In the same manner, a corneal damage of female SAMR1 at 16 weeks of age was evaluated, and thereafter, administration of the above-mentioned vehicle was started. Then, at 8 weeks after the start of administration (at 24 weeks of age), the same evaluation was carried out again.
Ebselen suspensions obtained by suspending it in a 1% (w/v) methyl cellulose aqueous solution (prepared by dissolving methyl cellulose in ultrapure water) at a concentration of 0.45 mg/mL and 4.5 mg/mL respectively were orally administered to female SAMP10 once a day at a dose of 6.67 μL per g of body weight of mouse. The both administration groups were determined to be a 3 mg/kg group and a 30 mg/kg group, respectively. The administration was carried out 5 days a week (Mon, Tue, Wed, Thu, Fri) over a period of 8 weeks. As a control, a 1% (w/v) methyl cellulose aqueous solution was orally administered to SAMP10 in the same manner at a dose of 6.67 μL per g of body weight of mouse. Further, to the control animal, female SAMR1, a 1% (w/v) methyl cellulose aqueous solution was orally administered in the same manner. Incidentally, the number of animals in each group of SAMP10 is 22 eyes (11 mice), and the number of SAMR1 is 16 eyes (8 mice).
The damaged parts of the cornea of SAMP10 and SAMR1 were stained with fluorescein immediately before and at 8 weeks after the start of administration. For each of the upper, middle and lower parts of the cornea, the degree of fluorescein staining was evaluated by scoring according to the evaluation criteria described in “1. Test for therapeutic effect on corneal damage using rat models in which the exorbital lacrimal gland was removed”, and the scoring of the degree of corneal damage (a maximum score of 9 points) was carried out by obtaining the total scores for each of the above-mentioned parts.
Incidentally, the scores in the table are expressed as mean±standard error in each group.

[3] = 200 μM in physiological saline instilled into both eyes 6 times a day for 14 days

| Compound | Improvement ratio (%) of corneal damage [1, 3] [%] | Improvement ratio (%) of corneal damage ([1]; 25 μM in physiological saline instilled into both eyes 6 times a day for 14 days) [%] | Improvement ratio compared with edaravone and α-lipoic acid ([1]; ebselen 25 μM vs comparators 200 μM, instillation for 14 days) | Staining score compared with the vehicle administration group of SAMP10 ([2]; 3 mg/kg and 30 mg/kg groups, 24 weeks of age, Dunnett's test p < 0.05) | Score of fluorescein staining ([2]; SAMP10, 3 mg/kg group, 16 weeks of age (immediately before start of administration)) | Score of fluorescein staining ([2]; SAMP10, 3 mg/kg oral once a day, 5 days a week for 8 weeks, 24 weeks of age) | Score of fluorescein staining ([2]; SAMP10, 30 mg/kg group, 16 weeks of age (immediately before start of administration)) | Score of fluorescein staining ([2]; SAMP10, 30 mg/kg oral once a day, 5 days a week for 8 weeks, 24 weeks of age) |
| --- | --- | --- | --- | --- | --- | --- | --- | --- |
| CC1=NN(c2ccccc2)C(=O)C1 [Edaravone, 3-methyl-1-phenyl-2-pyrazolin-5-one] | 36.9 |  |  |  |  |  |  |  |
| O=c1c2ccccc2[se]n1-c1ccccc1 [Ebselen, 2-phenyl-1,2-benzisoselenazol-3(2H)-one] |  | 76.5 | more than twice as high | significantly decreased | 2.61 ± 0.38 | 2.95 ± 0.45 | 2.45 ± 0.30 | 2.68 ± 0.33 |
| O=C(O)CCCCC1CCSS1 (stereo in doubt) [α-Lipoic acid, (3R)-1,2-dithiolane-3-pentanoic acid] | 30.8 |  |  |  |  |  |  |  |
